In test [1] the test system is E. coli ATCC 25922. Conditions: per CLSI M100-S24 or provided by Microbion; cited from earlier work.
The subject of test [2] is S. agalactiae. Description: Broth microdilution MIC (Example 5). The format is cell-based. The note with it: Streptococcus agalactiae. An outline of the steps:
(§1)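 Susceptibility testing used automated two-fold serial dilution in microdilution plates per CLSI. Each well received a standardized inoculum from a 0.5 McFarland suspension, with an unmedicated column as growth control.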
For orientation: In broth dilution the organism is exposed to a series of concentrations in liquid medium.

The subject of test [3] is S. pyogenes. Briefly: Broth microdilution MIC (Example 5). In kind it is cell-based. The note with it: Streptococcus pyogenes. An outline of the steps:
as §1

Test [4] deals with Enterobacteriaceae. Description: MIC summary across Enterobacteriaceae (Example 5). In kind it is cell-based, E. coli, K. pneumoniae, Enterobacter cloacae. Conditions: all evaluated Enterobacteriaceae isolates (Table 3). How it is done:
(§2) Test and Comparator Agents: The test agents were stored at room temperature until assayed. All test agents were suspended and diluted in 100% dimethylsulfoxide (DMSO), and were ultimately tested at a final concentration of 0.06-64 μg/mL. The stock solutions were allowed to stand for at least 1 hr prior to use to auto-sterilize.
(§3) TestMedia: Test media were prepared and stored in accordance with guidelines from CLSI (4, 6, 7). […] Neisseria gonorrhoeae were evaluated by agar dilution using agar consisting of GC medium base (BD; Lot No. 4274618) supplemented with 1% IsoVitaleX (BD; Lot No. 5246843).
(§4) Broth Microdilution MC Testing (Aerobic Bacteria and Yeast): The broth microdilution assay method employed for the susceptibility testing of aerobic bacteria (excluding N. gonorrhoeae which was evaluated by agar dilution) and yeast essentially followed the procedures described by CLSI (3, 4, 7, 8) and employed automated liquid handlers to conduct serial dilutions and liquid transfers. […]
(§5) Plates were stacked 4 high, covered with a lid on the top plate, placed into plastic bags, and incubated at 35° C. for approximately 24-48 hr for all yeast isolates and 16-24 hr for aerobic bacteria. […] MIC endpoints for the test agents and control compounds were read per CLSI criteria (3, 7).

Test [5] concerns beta-hemolytic streptococci. Description: MIC summary, beta-hemolytic streptococci (Example 5). The format is cell-based, S. pyogenes, S. agalactiae. The note with it: beta-hemolytic streptococci (Table 6); read-out: MIC values across isolates. How it is done:
as §2, §3, §4, §5

Test [6] has as its system MABSC / M. abscessus biofilms. Briefly: Activity against biofilms (Example 7). The note with it: AMT0130-8 MABSC CF-isolate. The format is cell-based, Mycobacterium abscessus complex.
The subject of test [7] is S. pneumoniae. Conditions: S. pneumoniae MMX 6837 (ATCC 49619); cited from earlier work.

These results are taken from patent US20240285571A1, “METHODS OF TREATING BONE INFECTIONS” (MICROBION CORPORATION, priority 2020, published 2024).

As for `NCC[C@H](O)C(=O)N[C@@H]1C[C@H](N)[C@@H](O[C@H]2O[C@H](CN)[C@@H](O)[C@H](O)[C@H]2O)[C@H](O)[C@H]1O[C@H]1O[C@H](CO)[C@@H](O)[C@H](N)[C@H]1O` [Amikacin], in test [1], the “MIC, acceptable range” value was 0.5 to 4 µg/mL and the “MIC, expected results” value was 1 to 2 µg/mL.

One may read the MIC as the smallest concentration in the dilution series that meets the test's criterion for growth inhibition. For the molecule `OCC(S)CS.[Bi]` (stereo not drawn) [MB-2B, bismuth-2,3-dimercaptopropanol], the MIC in test [2] (S. agalactiae MMX 3741, ERYR CCR) stood at 4 µg/mL; in test [2] (S. agalactiae MMX 3743, ERYR CCR) it was 4 µg/mL; in test [2] (S. agalactiae MMX 4077, ERYR CCR), 4 µg/mL; in test [2] (S. agalactiae MMX 4079, ERYR CCR PenR MEMR), 8 µg/mL; in test [3] (S. pyogenes MMX 3068, EryR), 2 µg/mL; in test [3] (S. pyogenes MMX 3820, ERYR CLIR), 1 µg/mL. Moreover, the MIC was 0.25 µg/mL in test [3] (S. pyogenes MMX 3919, ERYR); 1 µg/mL in test [3] (S. pyogenes MMX 3929, ERYR CCR); 1 µg/mL in test [3] (S. pyogenes MMX 5091, ERYR CCR); 2 to 32 µg/mL in test [4]; 0.25 to 8 µg/mL in test [5].

`CC(S)C(C)S.[Bi]` (stereo not drawn) [MB-6, bismuth-2,3-butanedithiol]: in test [6], the “Reductions in biofilm cell viability” value is reported as “only very modest reductions”.

Take `C[C@@H](O)[C@H]1C(=O)N2C(C(=O)O)=C(S[C@@H]3CN[C@H](C(=O)N(C)C)C3)[C@H](C)[C@H]12` [Meropenem]: in test [7], the “CLSI QC range of MIC” value was “(0.06-0.25) μg/mL”.
